Reference: PubChem BioAssay AID330 (DTP/NCI, 2004)
Where “and” joins values, the source holds several entries; their conditions need not be identical. Equal values may be shown once. Inconclusive results and toxic doses are left out. The calls were made as follows: active = survival T/C of 150% or more; inactive = T/C below 125% in these data.

System: P388 leukemia ip, CD2F1 mice, survival T/C
Assay: NCI In Vivo Anticancer Drug Screen. Data for tumor model P388 Leukemia (intraperitoneal) in CD2F1 (CDF1) mice
Conditions: endpoint: median survival time, higher = longer survival
How it was run: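 Mice carrying the transplanted tumor received test compound or vehicle. Survival was recorded in each group, and the value is the treated-group measurement divided by that of the vehicle-treated control group.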

[1] = dose: 50.0 mg/kg/injection, schedule: Q01DX009 (ip), vehicle: saline with Tween-80
[2] = dose: 100.0 mg/kg/injection, schedule: Q01DX009 (ip), vehicle: saline with Tween-80
[3] = dose: 200.0 mg/kg/injection, schedule: Q01DX009 (ip), vehicle: saline with Tween-80
[4] = dose: 100.0 mg/kg/injection, schedule: Q04DX002 (ip), vehicle: Klucel (hydroxypropylcellulose) (HPC)
[5] = dose: 200.0 mg/kg/injection, schedule: Q04DX002 (ip), vehicle: Klucel (hydroxypropylcellulose) (HPC)
[6] = dose: 50.0 mg/kg/injection, schedule: Q01DX005 (ip), vehicle: saline with Tween-80
[7] = dose: 100.0 mg/kg/injection, schedule: Q01DX005 (ip), vehicle: saline with Tween-80
[8] = dose: 200.0 mg/kg/injection, schedule: Q01DX005 (ip), vehicle: saline with Tween-80
[9] = dose: 12.5 mg/kg/injection, schedule: Q01DX005 (ip), vehicle: saline with Tween-80
[10] = dose: 12.5 mg/kg/injection, schedule: Q01DX009 (ip), vehicle: saline
[11] = dose: 50.0 mg/kg/injection, schedule: Q01DX009 (ip), vehicle: saline
[12] = dose: 200.0 mg/kg/injection, schedule: Q01DX009 (ip), vehicle: saline
[13] = dose: 50.0 mg/kg/injection, schedule: Q01DX005 (ip), vehicle: Klucel (hydroxypropylcellulose) (HPC)
[14] = dose: 100.0 mg/kg/injection, schedule: Q01DX005 (ip), vehicle: Klucel (hydroxypropylcellulose) (HPC)
[15] = dose: 200.0 mg/kg/injection, schedule: Q01DX005 (ip), vehicle: Klucel (hydroxypropylcellulose) (HPC)

Measured: T/C

CC(C)CCCC(C)C1CCC2C3CC=C4CC(OC(=O)C56C=CC(=O)C5C5C=CC6CC5)CCC4(C)C3CCC12C (configuration not stated)
inactive: dose: 1.56 mg/kg/injection, schedule: Q01DX005 (ip), vehicle: distilled water + Tween-80 100 % of control | dose: 3.12 mg/kg/injection, schedule: Q01DX005 (ip), vehicle: distilled water + Tween-80 90 % of control | dose: 200.0 mg/kg/injection, schedule: Q01DX005 (ip), vehicle: distilled water + Tween-80 86 % of control

COc1ccc2cc(-c3ccccc3)[s+]cc2c1
inactive: dose: 3.12 mg/kg/injection, schedule: Q01DX009 (ip), vehicle: DMSO 91 % of control | dose: 6.25 mg/kg/injection, schedule: Q01DX009 (ip), vehicle: DMSO 86 % of control | dose: 12.5 mg/kg/injection, schedule: Q01DX009 (ip), vehicle: DMSO 89 % of control | dose: 50.0 mg/kg/injection, schedule: Q01DX009 (ip), vehicle: DMSO 99 % of control

O=C(O)CC1(c2ccccc2)CCCCC1
inactive: [1] 103 % of control | [2] 100 % of control | [3] 102 % of control

O=C(c1ccccc1Cl)n1c(=O)oc2ccccc21
inactive: dose: 50.0 mg/kg/injection, schedule: Q04DX002 (ip), vehicle: Klucel (hydroxypropylcellulose) (HPC) 99 % of control | [4] 90 % of control | [5] 90 % of control

O=[N+]([O-])c1ccc([Se]CCBr)c([N+](=O)[O-])c1
inactive: dose: 100.0 mg/kg/injection, schedule: Q04DX003 (ip), vehicle: Klucel (hydroxypropylcellulose) (HPC) 101 % of control | dose: 200.0 mg/kg/injection, schedule: Q04DX003 (ip), vehicle: Klucel (hydroxypropylcellulose) (HPC) 101 % of control

OCC1(C(O)(C2CC2)C2(CO)CC2)CC1
inactive: [6] 105 % of control | [7] 105 % of control | [8] 100 % of control

CC(C)NC(=O)OCc1c(COC(=O)NC(C)C)c(-c2ccc(Cl)c(Cl)c2)n2c1CS(=O)(=O)C2
inactive: dose: 6.25 mg/kg/injection, schedule: Q01DX005 (ip), vehicle: saline with Tween-80 101 % of control | [9] 100 % of control and 87 % of control | [6] 86 % of control

NCC(=O)O.[Cl-].[Cl-].[Cl-].[Cl-].[Pt+2]
inactive: [10] 124 % of control | dose: 14.7 mg/kg/injection, schedule: Q01DX009 (ip), vehicle: saline 108 % of control | dose: 22.0 mg/kg/injection, schedule: Q01DX009 (ip), vehicle: saline 108 % of control

NNC(=O)CCC(N)C(=O)O (configuration not stated)
inactive: dose: 50.0 mg/kg/injection, schedule: Q01DX009 (ip), vehicle: saline sonified 100 % of control | dose: 50.0 mg/kg/injection, schedule: Q04DX003 (ip), vehicle: saline with Tween-80 95 % of control | dose: 100.0 mg/kg/injection, schedule: Q01DX009 (ip), vehicle: saline sonified 113 % of control | dose: 100.0 mg/kg/injection, schedule: Q04DX003 (ip), vehicle: saline with Tween-80 90 % of control | dose: 200.0 mg/kg/injection, schedule: Q04DX003 (ip), vehicle: saline with Tween-80 109 % of control

NC(=O)c1ccc(NO)cc1
inactive: [11] 106 % of control | dose: 100.0 mg/kg/injection, schedule: Q01DX009 (ip), vehicle: saline 98 % of control | [12] 94 % of control

COc1ccc(C(C)c2cc3c(cc2OC)OCO3)cc1 (configuration not stated)
inactive: [9] 101 % of control and 109 % of control and 95 % of control | dose: 25.0 mg/kg/injection, schedule: Q01DX005 (ip), vehicle: saline + alcohol 92 % of control | dose: 50.0 mg/kg/injection, schedule: Q01DX005 (ip), vehicle: saline + alcohol 91 % of control | dose: 100.0 mg/kg/injection, schedule: Q01DX005 (ip), vehicle: saline + alcohol 93 % of control | dose: 200.0 mg/kg/injection, schedule: Q01DX005 (ip), vehicle: saline + alcohol 106 % of control

COc1ccc(O)cc1
inactive: [9] 104 % of control | dose: 25.0 mg/kg/injection, schedule: Q01DX005 (ip), vehicle: saline with Tween-80 99 % of control | [6] 99 % of control | dose: 100.0 mg/kg/injection, schedule: Q01DX001 (ip), vehicle: saline with Tween-80 101 % of control | [7] 99 % of control | dose: 200.0 mg/kg/injection, schedule: Q01DX001 (ip), vehicle: saline with Tween-80 102 % of control

Cc1nnc2cc1CCCCCCCCC2
inactive: [13] 108 % of control | [14] 107 % of control | [15] 103 % of control

C=C(C)c1nc(N)nc(-c2ccc([N+](=O)[O-])cc2)n1
inactive: [4] 88 % of control | [5] 88 % of control | dose: 400.0 mg/kg/injection, schedule: Q04DX002 (ip), vehicle: Klucel (hydroxypropylcellulose) (HPC) 88 % of control

CCOC(=O)c1ccccc1NC(=O)c1ccccc1
inactive: dose: 25.0 mg/kg/injection, schedule: Q01DX009 (ip), vehicle: saline with Tween-80 93 % of control | [1] 94 % of control | [2] 103 % of control | [3] 111 % of control

O=C(c1ccccc1)c1ccc2n[se]nc2c1
inactive: dose: 3.75 mg/kg/injection, schedule: Q01DX005 (ip), vehicle: saline with Tween-80 100 % of control | dose: 7.5 mg/kg/injection, schedule: Q01DX005 (ip), vehicle: saline with Tween-80 87 % of control | dose: 15.0 mg/kg/injection, schedule: Q01DX005 (ip), vehicle: saline with Tween-80 97 % of control

O=C1c2ccccc2C(=Nc2ccccc2)c2c1c(O)n(-c1ccccc1)c2O
inactive: [13] 97 % of control | [14] 91 % of control | [15] 96 % of control

CC(=O)Cn1ccccc1=O
inactive: dose: 60.0 mg/kg/injection, schedule: Q01DX005 (ip), vehicle: saline 99 % of control | dose: 120.0 mg/kg/injection, schedule: Q01DX005 (ip), vehicle: saline 94 % of control | dose: 240.0 mg/kg/injection, schedule: Q01DX005 (ip), vehicle: saline 99 % of control

Cc1nn(C)c(Cl)c1C(=O)Nc1ccccc1
inactive: [6] 96 % of control | dose: 60.0 mg/kg/injection, schedule: Q01DX005 (ip), vehicle: saline with Tween-80 98 % of control | [7] 96 % of control | [8] 90 % of control | dose: 240.0 mg/kg/injection, schedule: Q01DX005 (ip), vehicle: saline with Tween-80 92 % of control

CCCCCCCN(CCCCCCC)C(=N)c1ccc(OC)c2ccccc12
inactive: dose: 6.25 mg/kg/injection, schedule: Q01DX005 (ip), vehicle: Klucel (hydroxypropylcellulose) (HPC) 101 % of control | dose: 12.5 mg/kg/injection, schedule: Q01DX005 (ip), vehicle: Klucel (hydroxypropylcellulose) (HPC) 101 % of control | dose: 25.0 mg/kg/injection, schedule: Q01DX005 (ip), vehicle: Klucel (hydroxypropylcellulose) (HPC) 89 % of control

C=C(C)C(=O)OC1CCC2(C)C(CCC3C2CCC2(C)C(c4ccc(=O)oc4)CCC32O)C1 (configuration not stated)
inactive: [10] 86 % of control | dose: 25.0 mg/kg/injection, schedule: Q01DX009 (ip), vehicle: saline 98 % of control | [11] 101 % of control and 94 % of control | [12] 95 % of control

C=Cn1c([N+](=O)[O-])cnc1/C=C\c1ccc(C(=O)NC(C)C)cc1
inactive: dose: 100.0 mg/kg/injection, schedule: Q04DX002 (ip), vehicle: gum acacia 92 % of control | dose: 200.0 mg/kg/injection, schedule: Q04DX002 (ip), vehicle: gum acacia 96 % of control | dose: 400.0 mg/kg/injection, schedule: Q04DX002 (ip), vehicle: gum acacia 92 % of control
